Results: US9562053B2, “Benzo-fused heterocyclic derivatives useful as agonists of GPR120” (Janssen Pharmaceutica NV, priority 2013, dated 2017)

System: C57Bl6 mice on a high fat diet
Assay: GPR120 DIO Mice OGTT Screening
Assay type: in vivo, mouse
Conditions: 10 mg/kg dosed 30 min before glucose, glucose AUC −30 to 90 min, change from vehicle, printed as %
Description: 18-22 week old, C57Bl6 mice on a high fat diet (60% HFD) for 12-16 weeks (ave. body weight ˜37-41 g) were fasted for 6 hr, with removal of food occurring at 7 am on the morning of the study. The animals were sorted into treatment groups the day before the study by body weight. Animals outside the bounds of ˜30-50 g were left out of the study. The animals had been handled and shammed a total of 5-8 days (1-3 days immediately prior to the study). Glucose (in 1 ml syringes) was drawn up the morning of the study. Test compounds were kept spinning and were only drawn into 1 ml syringes prior to study commencement. Animals were bled via tail snip to determine basal glucose levels prior to dosing of treatments. […]
Animals were moved into the testing room at ˜9-11 am, to yield them time to acclimate. […] All groups were dosed 30 minutes prior to glucose administration at a dose volume of 10 ml/kg (the dose volume was calculated separately for each individual animal). […]
Thirty minutes after the first dose (with test compound) animals were bled again for a second baseline, or T=0, and immediately dosed with glucose (20% solution; TEKNOVA, 250 ml sterile bottle w/catalogue number G0525) via a PO injection. The exact dose volume for glucose was also calculated separately for each individual animal.
Blood glucose was measured at 15, 30, 45, 60, and 90 minutes post-glucose administration via the snipped tail. […]

Structure (SMILES)	DIO Lowering Glucose AUC (−30 to 90) @10 mg/kg
Cc1cc2cc(Cl)c(C)c(COc3ccc(CCC(=O)O)c(C)c3C)c2o1 [Compound 85, 3-{4-[(5-Chloro-2,6-dimethyl-1-benzofuran-7-yl)methoxy]-2,3-dimethylphenyl}propanoic acid]	−37%
Cc1cc2c(F)c(OC(F)(F)F)c(F)c(COc3ccc(CCC(=O)O)c(F)c3F)c2o1 [Compound 75, 3-(4-{[4,6-Difluoro-2-methyl-5-(trifluoromethoxy)-1-benzofuran-7-yl]methoxy}-2,3-difluorophenyl)propanoic acid]	−31%
